Measurements: patent publication US9326506B2, “Preparation method, agricultural composition and applications of natural brassinolide analogs” (CHENGDU NEWSUN CROPSCIENCE CO., LTD, priority 2012, dated 2016)

Test system: rice
Assay: Low temperature assay on rice seedlings
Format: in vivo
Description: According to a low temperature assay, we measured parameters including plant height, number of leaf, area of leaf, number of tiller, weight of root at low temperature to completely determine effects of the natural brassinolide analogues on the resistance to low temperature of a plant.
The natural brassinolide analogues, BR1, BR2, BR3, BR4, BR5 and BR6, used herein, were those prepared by the method of Example 1. Respectively the analogues were dissolved into 95% (V/V) ethanol solution, and then diluted with pure water to 1 mg/L, 0.1 mg/L, 0.01 mg/L, 0.001 mg/L and 0.0001 mg/L. In addition, pure water was used as a control.
After rice seeds were disinfected by using 5% sodium hypochlorite solution treatment, they were rinsed with distilled water until their pH>7, placed into a petri dish in a dark incubator, and cultured by using water at 30° C.±2° C. for 9 days. Then respectively the nine-day-old etiolated seedlings of rice were immersed in the above solutions containing different concentrations of the natural brassinolide analogues or pure water, and cultured at the temperature of 1° C., 2° C., 3° C., 4° C. and 5° C. for 24 hr. The parameters including plant height, area of leaf and weight of root after 3, 6, 9 and 12 days and number of leaf and number of tiller after 12 days were measured.

CC(C)[C@H](C)[C@@H](O)[C@H](O)[C@@H](C)[C@H]1CCC2C3CC(=O)C4C[C@H](O)CC[C@]4(C)C3CC[C@@]21C (stereo partly shown) [BR4]
16 cm^2: Area of leaf (0.001 mg/l, 5 °C, 12 days)
12 cm^2: Area of leaf (0.0001 mg/l, 2 °C, 9 days) | Area of leaf (0.0001 mg/l, 5 °C, 6 days) | Area of leaf (0.001 mg/l, 2 °C, 9 days) | Area of leaf (0.001 mg/l, 3 °C, 6 days) | Area of leaf (0.001 mg/l, 4 °C, 6 days) | Area of leaf (0.01 mg/l, 3 °C, 6 days)
12.5 cm^2: Area of leaf (0.01 mg/l, 2 °C, 9 days)
15.4 cm^2: Area of leaf (0.001 mg/l, 5 °C, 9 days)
2.9 g: Weight of root (0.0001 mg/l, 3 °C, 9 days) | Weight of root (0.0001 mg/l, 3 °C, 12 days) | Weight of root (0.0001 mg/l, 4 °C, 9 days) | Weight of root (0.0001 mg/l, 4 °C, 12 days) | Weight of root (0.0001 mg/l, 5 °C, 9 days) | Weight of root (0.0001 mg/l, 5 °C, 12 days) | Weight of root (0.001 mg/l, 3 °C, 9 days) | Weight of root (0.001 mg/l, 3 °C, 12 days) | Weight of root (0.001 mg/l, 4 °C, 9 days) | Weight of root (0.001 mg/l, 4 °C, 12 days) | Weight of root (0.001 mg/l, 5 °C, 6 days)
2.6 g: Weight of root (0.0001 mg/l, 3 °C, 6 days) | Weight of root (0.0001 mg/l, 4 °C, 6 days) | Weight of root (0.001 mg/l, 3 °C, 6 days) | Weight of root (0.001 mg/l, 4 °C, 6 days) | Weight of root (0.01 mg/l, 3 °C, 6 days)
11 cm^2: Area of leaf (0.0001 mg/l, 1 °C, 6 days) | Area of leaf (0.01 mg/l, 2 °C, 6 days)
7.4 cm: Height (0.0001 mg/l, 3 °C, 9 days) | Height (0.0001 mg/l, 3 °C, 12 days) | Height (0.001 mg/l, 1 °C, 12 days) | Height (0.001 mg/l, 3 °C, 9 days) | Height (0.001 mg/l, 4 °C, 9 days) | Height (0.001 mg/l, 5 °C, 6 days) | Height (0.001 mg/l, 5 °C, 9 days) | Height (0.01 mg/l, 1 °C, 9 days) | Height (0.01 mg/l, 2 °C, 9 days)
13.4 cm^2: Area of leaf (0.0001 mg/l, 4 °C, 12 days) | Area of leaf (0.0001 mg/l, 5 °C, 12 days) | Area of leaf (0.01 mg/l, 2 °C, 12 days)
11.8 cm^2: Area of leaf (0.0001 mg/l, 3 °C, 6 days)
10 cm^2: Area of leaf (0.0001 mg/l, 2 °C, 3 days) | Area of leaf (0.0001 mg/l, 3 °C, 3 days) | Area of leaf (0.0001 mg/l, 4 °C, 3 days) | Area of leaf (0.001 mg/l, 1 °C, 3 days) | Area of leaf (0.001 mg/l, 3 °C, 3 days) | Area of leaf (0.001 mg/l, 4 °C, 3 days) | Area of leaf (0.01 mg/l, 2 °C, 3 days)
2.8 g: Weight of root (0.0001 mg/l, 1 °C, 3 days) | Weight of root (0.0001 mg/l, 2 °C, 3 days) | Weight of root (0.001 mg/l, 1 °C, 3 days) | Weight of root (0.001 mg/l, 2 °C, 3 days) | Weight of root (0.001 mg/l, 5 °C, 3 days) | Weight of root (0.01 mg/l, 1 °C, 3 days) | Weight of root (0.01 mg/l, 2 °C, 3 days)
3.0 g: Weight of root (0.0001 mg/l, 2 °C, 6 days) | Weight of root (0.001 mg/l, 2 °C, 6 days) | Weight of root (0.001 mg/l, 5 °C, 9 days) | Weight of root (0.01 mg/l, 1 °C, 6 days)
7.6 cm: Height (0.0001 mg/l, 5 °C, 12 days)
2.5 g: Weight of root (0.0001 mg/l, 3 °C, 3 days) | Weight of root (0.0001 mg/l, 4 °C, 3 days) | Weight of root (0.0001 mg/l, 5 °C, 3 days) | Weight of root (0.0001 mg/l, 5 °C, 6 days) | Weight of root (0.001 mg/l, 3 °C, 3 days) | Weight of root (0.001 mg/l, 4 °C, 3 days) | Weight of root (0.01 mg/l, 3 °C, 3 days)
12.4 cm^2: Area of leaf (0.01 mg/l, 1 °C, 9 days)
6.9 cm: Height (0.0001 mg/l, 1 °C, 6 days) | Height (0.0001 mg/l, 3 °C, 3 days) | Height (0.0001 mg/l, 4 °C, 3 days) | Height (0.001 mg/l, 1 °C, 3 days) | Height (0.001 mg/l, 2 °C, 3 days)
3.9 g: Weight of root (0.001 mg/l, 2 °C, 12 days) | Weight of root (0.01 mg/l, 1 °C, 12 days)
3 g: Weight of root (0.0001 mg/l, 1 °C, 6 days) | Weight of root (0.001 mg/l, 2 °C, 9 days) | Weight of root (0.01 mg/l, 2 °C, 6 days) | Weight of root (0.01 mg/l, 2 °C, 9 days)
3.5 g: Weight of root (0.0001 mg/l, 1 °C, 12 days)
6.7 cm: Height (0.01 mg/l, 1 °C, 3 days)
3.7 g: Weight of root (0.0001 mg/l, 2 °C, 12 days) | Weight of root (0.001 mg/l, 1 °C, 12 days) | Weight of root (0.001 mg/l, 5 °C, 12 days)
3.1 g: Weight of root (0.0001 mg/l, 1 °C, 9 days) | Weight of root (0.001 mg/l, 1 °C, 6 days) | Weight of root (0.01 mg/l, 1 °C, 9 days)
12.1 cm^2: Area of leaf (0.0001 mg/l, 3 °C, 9 days) | Area of leaf (0.01 mg/l, 3 °C, 9 days)
14 cm^2: Area of leaf (0.001 mg/l, 5 °C, 6 days)
12.2 cm^2: Area of leaf (0.0001 mg/l, 1 °C, 9 days) | Area of leaf (0.001 mg/l, 3 °C, 9 days)
13.6 cm^2: Area of leaf (0.001 mg/l, 1 °C, 12 days) | Area of leaf (0.01 mg/l, 1 °C, 12 days)
7.2 cm: Height (0.0001 mg/l, 1 °C, 12 days) | Height (0.0001 mg/l, 2 °C, 12 days) | Height (0.001 mg/l, 3 °C, 6 days) | Height (0.001 mg/l, 5 °C, 3 days) | Height (0.01 mg/l, 2 °C, 6 days)
11.3 cm^2: Area of leaf (0.001 mg/l, 1 °C, 6 days)
12.6 cm^2: Area of leaf (0.001 mg/l, 1 °C, 9 days)
2: Number of tiller (0.0001 mg/l, 3 °C, 12 days) | Number of tiller (0.0001 mg/l, 4 °C, 12 days) | Number of tiller (0.0001 mg/l, 5 °C, 12 days) | Number of tiller (0.001 mg/l, 3 °C, 12 days) | Number of tiller (0.001 mg/l, 4 °C, 12 days)
7.0 cm: Height (0.0001 mg/l, 5 °C, 3 days)
3: Number of leaf (0.0001 mg/l, 1 °C, 12 days) | Number of tiller (0.0001 mg/l, 1 °C, 12 days) | Number of leaf (0.0001 mg/l, 2 °C, 12 days) | Number of tiller (0.0001 mg/l, 2 °C, 12 days) | Number of leaf (0.0001 mg/l, 3 °C, 12 days) | Number of leaf (0.0001 mg/l, 4 °C, 12 days) | Number of leaf (0.0001 mg/l, 5 °C, 12 days) | Number of leaf (0.001 mg/l, 1 °C, 12 days) | Number of tiller (0.001 mg/l, 1 °C, 12 days) | Number of leaf (0.001 mg/l, 2 °C, 12 days) | Number of tiller (0.001 mg/l, 2 °C, 12 days) | Number of leaf (0.001 mg/l, 3 °C, 12 days) | Number of leaf (0.001 mg/l, 4 °C, 12 days) | Number of leaf (0.001 mg/l, 5 °C, 12 days) | Number of tiller (0.001 mg/l, 5 °C, 12 days) | Number of leaf (0.01 mg/l, 1 °C, 12 days) | Number of tiller (0.01 mg/l, 1 °C, 12 days) | Number of leaf (0.01 mg/l, 2 °C, 12 days) | Number of tiller (0.01 mg/l, 2 °C, 12 days)
13.1 cm^2: Area of leaf (0.001 mg/l, 2 °C, 12 days) | Area of leaf (0.001 mg/l, 4 °C, 12 days)
10.2 cm^2: Area of leaf (0.0001 mg/l, 5 °C, 3 days) | Area of leaf (0.001 mg/l, 5 °C, 3 days) | Area of leaf (0.01 mg/l, 3 °C, 3 days)
6.8 cm: Height (0.0001 mg/l, 1 °C, 3 days) | Height (0.0001 mg/l, 2 °C, 3 days)
7.1 cm: Height (0.0001 mg/l, 2 °C, 9 days) | Height (0.0001 mg/l, 3 °C, 6 days) | Height (0.0001 mg/l, 4 °C, 6 days) | Height (0.001 mg/l, 1 °C, 9 days) | Height (0.001 mg/l, 2 °C, 9 days) | Height (0.001 mg/l, 4 °C, 3 days) | Height (0.01 mg/l, 1 °C, 6 days)
7 cm: Height (0.0001 mg/l, 1 °C, 9 days) | Height (0.0001 mg/l, 2 °C, 6 days) | Height (0.001 mg/l, 1 °C, 6 days) | Height (0.001 mg/l, 2 °C, 6 days) | Height (0.001 mg/l, 3 °C, 3 days) | Height (0.01 mg/l, 2 °C, 3 days) | Height (0.01 mg/l, 3 °C, 3 days)
9.8 cm^2: Area of leaf (0.0001 mg/l, 1 °C, 3 days) | Area of leaf (0.001 mg/l, 2 °C, 3 days)
9.2 cm^2: Area of leaf (0.01 mg/l, 1 °C, 3 days)
13 cm^2: Area of leaf (0.0001 mg/l, 1 °C, 12 days) | Area of leaf (0.0001 mg/l, 2 °C, 12 days) | Area of leaf (0.0001 mg/l, 3 °C, 12 days) | Area of leaf (0.0001 mg/l, 4 °C, 9 days) | Area of leaf (0.0001 mg/l, 5 °C, 9 days) | Area of leaf (0.001 mg/l, 3 °C, 12 days) | Area of leaf (0.001 mg/l, 4 °C, 9 days)
7.9 cm: Height (0.001 mg/l, 5 °C, 12 days)
3.2 g: Weight of root (0.0001 mg/l, 2 °C, 9 days) | Weight of root (0.001 mg/l, 1 °C, 9 days) | Weight of root (0.01 mg/l, 2 °C, 12 days)
7.3 cm: Height (0.0001 mg/l, 5 °C, 6 days) | Height (0.001 mg/l, 2 °C, 12 days) | Height (0.001 mg/l, 4 °C, 6 days) | Height (0.01 mg/l, 3 °C, 6 days)
11.6 cm^2: Area of leaf (0.001 mg/l, 2 °C, 6 days) | Area of leaf (0.01 mg/l, 1 °C, 6 days)
11.7 cm^2: Area of leaf (0.0001 mg/l, 2 °C, 6 days)
11.5 cm^2: Area of leaf (0.0001 mg/l, 4 °C, 6 days)
7.5 cm: Height (0.0001 mg/l, 4 °C, 9 days) | Height (0.0001 mg/l, 4 °C, 12 days) | Height (0.0001 mg/l, 5 °C, 9 days) | Height (0.001 mg/l, 3 °C, 12 days) | Height (0.001 mg/l, 4 °C, 12 days) | Height (0.01 mg/l, 1 °C, 12 days) | Height (0.01 mg/l, 2 °C, 12 days)
